In patent US9481654B2, “Compositions and methods for inhibition of the JAK pathway” (Rigel Pharmaceuticals, Inc., priority 2006, dated 2016) one finds IC50 data, which are given here for 26 molecules.

In test [1] the test system is primary human T-cells (IL-2 induced proliferation, JAK-1/JAK-3, Stat-5). As to the kind of experiment: Primary Human T-Cell Proliferation Assay Stimulated with IL-2 (CellTiter-Glo). The test is classed as cell-based. The note with it: Table III Example 4. Put shortly: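 Read-out is intracellular ATP luminescence (CellTiter-Glo) after 72 h at 37 °C of IL-2-driven growth. Cells, pre-stimulated via TCR and CD28 then washed free of IL-2, were resuspended in Yssel's medium, given 80 U/mL IL-2 in the cell suspension plus duplicate compound; unstimulated wells lacked IL-2.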

Test [2] relates to IFNγ induced ICAM-1 (CD54) up-regulation in U937 human monocytic cells (JAK/Stat pathway). Briefly: U937 IFNγ ICAM1 FACS Assay. The test is classed as cell-based. To be noted: Table III Example 6, 10 ng/mL IFNγ, 18-24 hours. Put shortly: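 Flow cytometry gave ICAM-1 (CD54) up-regulation as ICAM-APC geometric mean within the live-cell gate, alongside % viable cells. Human monocytic U937 cells received 3-fold serial compound dilutions for 30 min at 37 °C, followed by IFNγ stimulation lasting 18–24 h. Dose curves yielded EC50s.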

On to `Cc1cnc(Nc2ccc(S(N)(=O)=O)cc2)nc1Nc1cccc(CN(C)S(=O)(=O)C2CC2)c1` [Compound I-124, N2-(4-aminosulfonyl)phenyl-N4-[3-(N-cyclopropylsulfonyl-N-methyl)aminomethyl]phenyl-5-methyl-2,4-pyrimidinediamine], for which the IC50 was found to be 0.132 µM in test [1] and 0.373 µM in test [2].
For `Cc1cnc(Nc2cccc(S(=O)(=O)NC(C)C)c2)nc1Nc1ccc(CNS(=O)(=O)C2CC2)cc1` [Compound I-173, N4-(4-cyclopropylsulfonylaminomethyl)phenyl-N2-(3-isopropylaminosulfonyl)phenyl-5-methyl-2,4-pyrimidinediamine], in that order: 0.0424 µM and 0.109 µM.
For `CNS(=O)(=O)c1cccc(Nc2ncc(C)c(Nc3cccc(CNS(=O)(=O)C4CC4)c3)n2)c1` [Compound I-162, N4-(3-cyclopropylsulfonylaminomethyl)phenyl-5-methyl-N2-(3-methylaminosulfonyl)phenyl-2,4-pyrimidinediamine], in that order: 0.0463 µM and 0.155 µM.
As to `C#CCNS(=O)(=O)Cc1ccc(Nc2nc(Nc3cccc(S(N)(=O)=O)c3)ncc2F)cc1` [Compound I-4, N2-(3-Aminosulfonylphenyl)-5-fluoro-N4-[4-(prop-2-ynylaminosulfonylmethyl)phenyl]-2,4-pyrimidinediamine], the IC50 came to 0.109 µM in test [1] (Homo sapiens, T-cell) and 0.908 µM in test [2] (Homo sapiens, U-937).
`Cc1ccc(Nc2ncc(C)c(Nc3ccc(CCNS(=O)(=O)C4CC4)cc3)n2)cc1S(N)(=O)=O` [Compound I-55, N2-(3-aminosulfonyl-4-methyl)phenyl-N4-[4-(2-cyclopropylsulfonylamino)ethyl]phenyl-5-methyl-2,4-pyrimidinediamine]: the IC50 in test [1] came to 0.0845 µM; in test [2], 0.36 µM.
Regarding `NS(=O)(=O)c1ccc(Nc2ncc(Cl)c(Nc3ccc(CNS(=O)(=O)C4CC4)cc3)n2)cc1` [Compound I-115, N2-(4-aminosulfonyl)phenyl-5-chloro-N4-(4-cyclopropylsulfonylaminomethyl)phenyl-2,4-pyrimidinediamine], the IC50 was 0.0192 µM in test [1] and 0.105 µM in test [2].
For the molecule `Cc1cnc(Nc2cccc(S(N)(=O)=O)c2)nc1Nc1ccc(CNS(=O)(=O)CC(F)(F)F)cc1` [Compound I-97, N2-(3-aminosulfonyl)phenyl-5-methyl-N4-(4-trifluoroethylsulfonylaminomethyl)phenyl-2,4-pyrimidinediamine], the IC50 in test [1] is 0.0488 µM; in test [2], 0.257 µM.
For `Cc1ccc(Nc2ncc(F)c(Nc3ccc(CNS(=O)(=O)C4CCCCC4)cc3)n2)cc1S(N)(=O)=O` [Compound I-73, N2-(3-aminosulfonyl-4-methyl)phenyl-N4-(4-cyclohexylsulfonylaminomethyl)phenyl-5-fluoro-2,4-pyrimidinediamine], in that order: 0.071 µM and 0.311 µM.
For `COCCNS(=O)(=O)c1cc(Nc2ncc(C)c(Nc3cccc(CNS(=O)(=O)C4CC4)c3)n2)ccc1C` [Compound I-210, N4-(3-cyclopropylsulfonylaminomethyl)phenyl-N2-[3-(2-methoxyethyl)aminosulfonyl-4-methyl]phenyl-5-methyl-2,4-pyrimidinediamine], in that order: 0.143 µM and 0.175 µM.
For `CCS(=O)(=O)NCCc1ccc(Nc2nc(Nc3cccc(S(N)(=O)=O)c3)ncc2C)cc1` [Compound I-39, N2-(3-aminosulfonyl)phenyl-N4-[4-(2-ethylsulfonylamino)ethyl]phenyl-5-methyl-2,4-pyrimidinediamine] the same measures were 0.058 µM and 0.604 µM.
Take `Cc1cnc(Nc2cc(S(N)(=O)=O)cc(S(N)(=O)=O)c2)nc1Nc1ccc(CNS(=O)(=O)C2CC2)cc1` [Compound I-84, N4-(4-cyclopropylsulfonylaminomethyl)phenyl-N2-(3,5-diaminosulfonyl)phenyl-5-methyl-2,4-pyrimidinediamine]: the figures for the IC50 in test [1] and in test [2] were 0.237 µM and 0.928 µM, respectively.
On to `CCS(=O)(=O)NCc1ccc(Nc2nc(Nc3cccc(S(N)(=O)=O)c3)ncc2C)cc1` [Compound I-21, N2-(3-aminosulfonyl)phenyl-N4-(4-ethylsulfonylaminomethyl)phenyl-5-methyl-2,4-pyrimidinediamine], for which the IC50 in test [1] is 0.0589 µM; in test [2], 0.362 µM.
For `Cc1ccc(Nc2ncc(C)c(Nc3ccc(CNS(=O)(=O)C4CC4)c(Cl)c3)n2)cc1S(N)(=O)=O` [Compound I-125, N2-(3-aminosulfonyl-4-methyl)phenyl-N4-(3-chloro-4-cyclopropylsulfonylaminomethyl)phenyl-5-methyl-2,4-pyrimidinediamine] the same measures were 0.138 µM and 0.389 µM.
For `CCS(=O)(=O)NCc1ccc(Nc2nc(Nc3ccc(C)c(S(N)(=O)=O)c3)ncc2F)cc1` [Compound I-10, N2-(3-aminosulfonyl-4-methyl)phenyl-N4-(4-ethylsulfonylaminomethyl)phenyl-5-fluoro-2,4-pyrimidinediamine] the same measures were 0.0606 µM and 0.477 µM.
`CCNS(=O)(=O)c1ccc(Nc2ncc(C)c(Nc3ccc(CNS(=O)(=O)C4CC4)cc3)n2)cc1` [Compound I-175, N4-(4-cyclopropylsulfonylaminomethyl)phenyl-N2-(4-ethylaminosulfonyl)phenyl-5-methyl-2,4-pyrimidinediamine]: the figures for the IC50 in test [1] and in test [2] were 0.102 µM and 0.0723 µM, respectively.
For `Cc1ccc(Nc2ncc(C)c(Nc3ccc4c(c3)CCN(S(=O)(=O)C3CC3)C4)n2)cc1S(N)(=O)=O` [II-3, N2-(3-aminosulfonyl-4-methyl)phenyl-N4-[(N-cyclopropylsulfonyl)-1,2,3,4-tetrahydroisoquinolin-6-yl]-5-methyl-2,4-pyrimidinediamine], in that order: 0.0475 µM and 0.0879 µM.
`NS(=O)(=O)c1cccc(Nc2ncc(Cl)c(Nc3ccc(CNS(=O)(=O)C4CC4)cc3)n2)c1` [Compound I-114, N2-(3-aminosulfonyl)phenyl-5-chloro-N4-(4-cyclopropylsulfonylaminomethyl)phenyl-2,4-pyrimidinediamine]: the IC50 turned out to be 0.0092 µM in test [1] and 0.0517 µM in test [2].
For `COCCCNS(=O)(=O)c1cc(Nc2ncc(C)c(Nc3ccc(CNS(=O)(=O)C4CC4)cc3)n2)ccc1C` [Compound I-191, N4-(4-cyclopropylsulfonylaminomethyl)phenyl-N2-[3-(3-methoxypropyl)aminosulfonyl-4-methyl]phenyl-5-methyl-2,4-pyrimidinediamine] the same measures were 0.0799 µM and 0.247 µM.
As to `NS(=O)(=O)c1cccc(Nc2ncc(F)c(Nc3ccc(CNS(=O)(=O)C4CCCCC4)cc3)n2)c1` [Compound I-72, N2-(3-aminosulfonyl)phenyl-N4-(4-cyclohexylsulfonylaminomethyl)phenyl-5-fluoro-2,4-pyrimidinediamine], the figures for the IC50 in test [1] and in test [2] were 0.0251 µM and 0.204 µM, respectively.
`CNS(=O)(=O)c1ccc(Nc2ncc(C)c(Nc3cccc(CNS(=O)(=O)C4CC4)c3)n2)cc1` [Compound I-207, N4-(3-cyclopropylsulfonylaminomethyl)phenyl-5-methyl-N2-(4-methylaminosulfonyl)phenyl-2,4-pyrimidinediamine]: the IC50 in test [1] is 0.158 µM; in test [2], 0.312 µM.
For `COCCNS(=O)(=O)c1cc(Nc2ncc(C)c(Nc3ccc(CNS(=O)(=O)C4CC4)cc3)n2)ccc1C` [Compound I-190, N4-(4-cyclopropylsulfonylaminomethyl)phenyl-N2-[3-(2-methoxyethyl)aminosulfonyl-4-methyl]phenyl-5-methyl-2,4-pyrimidinediamine] the same measures were 0.101 µM and 0.187 µM.
For `Cc1ccc(Nc2ncc(F)c(Nc3cccc(CNS(=O)(=O)C4CC4)c3)n2)cc1S(N)(=O)=O` [Compound I-34, N2-(3-aminosulfonyl-4-methyl)phenyl-N4-(3-cyclopropylsulfonylaminomethyl)phenyl-5-fluoro-2,4-pyrimidinediamine], in that order: 0.484 µM and 1.19 µM.
As for `CNS(=O)(=O)c1cccc(Nc2ncc(C)c(Nc3ccc(CNS(=O)(=O)C4CC4)cc3)n2)c1` [Compound I-161, N4-(4-cyclopropylsulfonylaminomethyl)phenyl-5-methyl-N2-(3-methylaminosulfonyl)phenyl-2,4-pyrimidinediamine], the IC50 in test [1] is 0.0112 µM; in test [2], 0.051 µM.
For the molecule `C#CCNS(=O)(=O)c1ccc(Nc2ncc(C)c(Nc3ccc(CNS(=O)(=O)C4CC4)cc3)n2)cc1` [Compound I-164, N4-(4-cyclopropylsulfonylaminomethyl)phenyl-5-methyl-N2-(4-propargylaminosulfonyl)phenyl-2,4-pyrimidinediamine], the figures for the IC50 in test [1] and in test [2] were 0.0328 µM and 0.16 µM, respectively.
For `Cc1ccc(Nc2ncc(C)c(Nc3cccc(CNS(=O)(=O)C4CC4)c3)n2)cc1S(N)(=O)=O` [Compound I-52, N2-(3-aminosulfonyl-4-methyl)phenyl-N4-(3-cyclopropylsulfonylaminomethyl)phenyl-5-methyl-2,4-pyrimidinediamine], the IC50 in test [1] is 0.0662 µM; in test [2], 0.203 µM.
As to `Cc1ccc(Nc2ncc(F)c(Nc3ccc(CNS(=O)(=O)C(C)C)cc3)n2)cc1S(N)(=O)=O` [Compound I-67, N2-(3-aminosulfonyl-4-methyl)phenyl-5-fluoro-N4-(4-isopropylsulfonylaminomethyl)phenyl-2,4-pyrimidinediamine], the values for the IC50 in test [1] and in test [2] were 0.0845 µM and 0.321 µM, respectively.
